Values quoted from earlier work, collected in Sander's compilation of Henry's law constants (doi:10.1002/etc.5620190905).

Experiment: Henry solubility constant Hcp at 298.15 K (mol/(m3 Pa))
Conditions: reference: Armbrust (2000); cited value

SMILES | Henry solubility constant Hcp
CC(C)Oc1cc(-n2nc(C(C)(C)C)oc2=O)c(Cl)cc1Cl [oxadiazon] | 140
N#Cc1c(Cl)c(Cl)c(Cl)c(C#N)c1Cl [2,4,5,6-tetrachloro-1,3-dicyanobenzene] | 45
COC(=O)c1ccccc1S(=O)(=O)NC(=O)Nc1nc(C)cc(C)n1 [sulfometuron methyl] | 8.2e+12
CCOP(=S)(OCC)Oc1nc(Cl)c(Cl)cc1Cl [chlorpyrifos] | 1.4
O=C(O)COc1ccc(Cl)cc1Cl [(2,4-dichlorophenoxy)-ethanoic acid] | 5.5e+06
COc1c(Cl)ccc(Cl)c1C(=O)O [dicamba] | 22000
CCN(CC)C(=O)SCc1ccc(Cl)cc1 [S-(4-chlorobenzyl) diethylthiocarbamate] | 37
COC(=O)c1ccccc1CS(=O)(=O)NC(=O)Nc1nc(OC)cc(OC)n1 [bensulfuron methyl] | 7e+10
O=C(O)COc1nc(Cl)c(Cl)cc1Cl [[(3,5,6-trichloro-2-pyridinyl)oxy]-acetic acid] | 12000
O=[N+]([O-])/N=C1\NCCN1Cc1ccc(Cl)nc1 [imidacloprid] | 4.9e+09
COc1nc(C)nc(NC(=O)NS(=O)(=O)c2ccccc2Cl)n1 [chlorsulfuron] | 150000
